US20030108523A1, “Cancer treatment system” (priority 2001, published 2003)

Columns and labels:
Mesothelioma cells = assay: Cell-growth inhibition assay (MTT colorimetric assay); format: cell-based, human
Protocol: Various mesothelioma cell lines were established from specimens obtained from pleural effusions of patients with established pleural malignant mesothelioma. Cell cultures were performed according to standard methods. Briefly, pleural effusions were centrifuged and the cell pellets were transferred into 25 cm^2 tissue culture flasks. The medium consisted of RPMI 1640 supplemented with 10% fetal bovine serum, 2 mM glutamine, 10 mM HEPES buffer, 50 U/ml penicillin, and 50 μg/ml streptomycin. Cultures were maintained in humidified atmosphere of 5% CO2 at 37° C. and examined daily. When cells were confluent, a trypsin-EDTA mixture in PBS was used to detach the cells, and the cultures were used between passages 5 and 20.
Mesothelioma cells were counted and dispensed into eight, 96-well tissue-culture plates (Costar, Cambridge, Mass.) at a concentration of 2,000 cells/well in 100 μl of culture medium. […] Culture plates were then incubated for different times between 0 and 168 hours and cell proliferation was measured every 24 hours. […]
Cell proliferation was determined by a colorimetric assay using MTT [3(4,5-dimethylthiazol-2yl)2,5-diphenyltetrazolium bromide], a tetrazolium salt which is reduced to a colored formazan product by reducing enzymes present only in metabolically active cells. (See Alley et al., “Feasibility of drug screening with panel of human tumor cell lines using a microculture tetrazolium assay” Cancer Res. 48: 589-601, 1988.) Thus, metabolically active cells such as cells undergoing division will produce more formazan, which can be detected by a spectrophotometer.
Briefly, twenty-five μls of MTT solution were added to culture wells containing cells as described above. […] Absorption of each well was measured using a spectrophotometer at 540 nm. The effect of α-MSH on cell proliferation was determined as percent OD difference in α-MSH treated wells relative to control wells. […]

NF-κB = settings: U937 cells; cited from earlier work
[1] = in vivo; cited from earlier work

Substance	Dose dependence of the inhibitory effect on mesothelioma cell proliferation (Mesothelioma cells; 10^-6 to 10^-4 M, FIG. 2)	Concentration at which the inhibitory effect was most significant and consistent (Mesothelioma cells; FIG. 2)	Cell proliferation of treated versus control wells, early intervals (Mesothelioma cells; intervals between 24 and 72 h)	NF-κB activation induced by TNF-α, endotoxin, ceramide and okadaic acid (NF-κB)	Potency in reducing fever relative to the parent peptide α-MSH [1]
SYSMEHFRWGKPV (listed as Homo sapiens) [α-MSH, thirteen amino-acid peptide produced by post-translational processing of propiomelanocortin]	dose-dependent	10^−4 M	no difference in cell proliferation	downregulates NF-κB activation	–
[Nle4-D-Phe7]-α-MSH	–	–	–	–	approximately ten times more potent
